Target: human M4 receptor (Homo sapiens (Human), UniProt P08173)
Assay: Binding assay: inhibition of radioligand (tritiated N-methylscopolamine) binding to membranes from CHO cells expressing human M4 receptor
Settings: CHO cell membranes, 1.5 nM tritiated N-methylscopolamine
Outline: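 Competition binding used CHO-cell membranes expressing human M4 with 1.5 nM [3H]N-methylscopolamine and twelve compound concentrations ([…]). Incubation was 90 minutes at 37 °C in 50 mM HEPES, 100 mM NaCl, 5 mM MgCl2, 1 mM EDTA, pH 7.4. Bound ligand was collected by filtration onto PEI-treated glass fibre for Ki.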

Sequence of human M4 receptor (P08173 whole entry): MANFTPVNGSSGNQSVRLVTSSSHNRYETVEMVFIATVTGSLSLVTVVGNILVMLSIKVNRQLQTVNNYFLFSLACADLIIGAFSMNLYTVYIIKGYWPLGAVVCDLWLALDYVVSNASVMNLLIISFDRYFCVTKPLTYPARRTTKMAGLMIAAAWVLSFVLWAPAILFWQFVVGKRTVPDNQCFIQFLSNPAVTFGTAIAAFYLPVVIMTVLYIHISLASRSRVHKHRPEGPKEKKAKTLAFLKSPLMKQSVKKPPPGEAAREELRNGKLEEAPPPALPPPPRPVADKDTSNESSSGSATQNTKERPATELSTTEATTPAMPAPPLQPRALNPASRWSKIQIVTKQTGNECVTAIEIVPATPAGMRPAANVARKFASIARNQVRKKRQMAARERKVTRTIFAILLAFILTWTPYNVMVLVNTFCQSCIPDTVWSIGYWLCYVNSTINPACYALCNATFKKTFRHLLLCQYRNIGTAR

| Compound | Ki |
| --- | --- |
| C[C@@H]1CN(c2ccc(S(C)(=O)=O)cc2)C[C@H](C)N1C(=O)NC1CC2(C1)CN(Cc1ccccc1)C2 [Compound 9, (2R,6S)-N-{2-benzyl-2-azaspiro[3.3]heptan-6-yl}-4-(4-methanesulfonyl-phenyl)-2,6-dimethyl-piperazine-1-carboxamide] | ≥ 500 nM |
| CC[C@H](O)COc1cnc(N2C[C@@H](C)N(C(=O)OC3CC4(C3)CN(Cc3ccccc3)C4)[C@@H](C)C2)nc1 [Compound 57, 2-benzyl-2-azaspiro [3.3]heptan-6-yl (2R,6S)-4-{5-[(2S)-2-hydroxybutoxy]pyrimidin-2-yl}-2,6-dimethyl-piperazine-1-carboxylate] | 100 to 500 nM |
| Cc1ccc(CN2CC3(CC(OC(=O)N4[C@H](C)CN(c5ncc(S(C)(=O)=O)cn5)C[C@@H]4C)C3)C2)cc1 [Compound 61, 2-[(4-methylphenyl)methyl]-2-azaspiro[3.3] heptan-6-yl (2R,6S)-4-(5-methanesulfonylpyrimidin-2-yl)-2,6-dimethyl-piperazine-1-carboxylate] | ≥ 500 nM |

Further lines, results first:

| Ki | Compound |
| --- | --- |
| < 100 nM | COc1ccc(CN2CC3(CC(OC(=O)N4[C@H](C)CN(c5ncc(S(C)(=O)=O)cn5)C[C@@H]4C)C3)C2)cc1 [Compound 60, 2-[(4-methoxyphenyl)methyl]-2-azaspiro[3.3] heptan-6-yl (2R,6S)-4-(5-methanesulfonylpyrimidin-2-yl)-2,6-dimethyl-piperazine-1-carboxylate] |
| 100 to 500 nM | C[C@@H]1CN(c2ncc(OC[C@@H](C)O)cn2)C[C@H](C)N1C(=O)OC1CC2(C1)CN(Cc1ccccc1)C2 [Compound 56, 2-benzyl-2-azaspiro [3.3]heptan-6-yl (2R,6S)-4-{5-[(2R)-2-hydroxypropoxy]pyrimidin-2-yl}-2,6-dimethyl-piperazine-1-carboxylate] |
| < 100 nM | CCS(=O)(=O)c1cnc(N2C[C@@H](C)N(C(=O)NC3CC4(C3)CN(Cc3ccccc3)C4)[C@@H](C)C2)nc1 [Compound 2, (2R,6S)-N-{2-benzyl-2-azaspiro[3.3]heptan-6-yl}-4-[5-(ethanesulfonyl)pyrimidin-2-yl]-2,6-dimethylpiperazine-1-carboxamide] |
| ≥ 500 nM | C[C@@H]1CN(c2ncc(OCC(O)CF)cn2)C[C@H](C)N1C(=O)OC1CC2(C1)CN(Cc1ccccc1)C2 (stereo partly drawn) [Compound 53, 2-benzyl-2-azaspiro [3.3]heptan-6-yl (2R,6S)-4-[5-(3-fluoro-2-hydroxypropoxy)pyrimidin-2-yl]-2,6-dimethyl-piperazine-1-carboxylate] |
| ≥ 500 nM | C[C@@H]1CN(c2ncc(OC3CC3)cn2)C[C@H](C)N1C(=O)OC1CC2(C1)CN(Cc1ccccc1)C2 [Compound 46, 2-benzyl-2-azaspiro [3.3]heptan-6-yl (2R,6S)-4-(5-cyclopropoxy-pyrimidin-2-yl)-2,6-dimethylpiperazine-1-carboxylate] |

From patent US20250092022A1, “MUSCARINIC RECEPTOR 4 ANTAGONISTS AND METHODS OF USE” (Neurocrine Biosciences, Inc., priority 2021, published 2025)
